In the METLIN SMRT retention time set (Domingo-Almenara et al. 2019) one finds RP-LC retention time data, which are given here for 79 compounds.

SMILES strings stand for the structures.

A short description of the series: gradient 5% acetonitrile 3 min, to 50% in 2 min, to 85% in 15 min, held 3 min, 100 µL/min. The conditions noted are these: column: Zorbax Extend-C18 2.1 x 50 mm; eluents: water / acetonitrile, 0.1% formic acid. The method, boiled down:
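Each retention time is based on an adduct peak selected computationally and verified by manual inspection. Measurements used HPLC–quadrupole time-of-flight mass spectrometry in positive and negative ionization mode on mixtures of ~100 pure standards. Chromatography ran on a Zorbax Extend-C18 column (2.1 × 50 mm, 1.8 μm) at 100 μL/min with water and acetonitrile, each containing 0.1% formic acid, and dead and dwell volumes of 40 μL and 900 μL.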
`Cc1nc(C)n(CC(=O)Nc2ccc(F)cc2)c(=O)c1C` came in with an RP-LC retention time of 630 s.

For the compound `CC(NC(=O)C1CCCN(c2ccc(=O)n(-c3cccc(F)c3)n2)C1)c1ccccc1` (centres undefined), the RP-LC retention time came to 868 s. To `COc1nn(C)cc1C(=O)NCCn1nc(-c2cccs2)ccc1=O` belongs 605 s; to `CCNC(=O)C1CCN(C(=O)Nc2ccc(NC(=O)Nc3ccc(C)cc3C)cc2)CC1`, 729 s. As for `CCC(C)NC(=O)C1CCN(CCc2cn(C)c3ncccc23)CC1` (centres undefined), the RP-LC retention time worked out at 574 s. To `COc1ccc(NC(=O)CCc2cccc3[nH]ccc23)c(C)c1` belongs 805 s; to `Cc1oc2ncnc(N3CCCC(C(=O)N4CCN(C5CCCCC5)CC4)C3)c2c1C` (centres undefined), 1230 s; to `COc1ccc(-n2ncc3c(=O)n(Cc4nc(-c5ccc(OC(F)(F)F)cc5)no4)cnc32)cc1`, 1100 s. As to `O=C(NCc1nc(-c2ccc(N3CCCC3)cc2)no1)c1ccco1`, the RP-LC retention time stood at 889 s. Then `CCNC(=O)CN1C(=O)CCSc2ccccc21`, with 664 s; and `CC1=C(c2cccc(Cl)c2)S(=O)(=O)N=C1N1CCCN(C(=O)c2ccccn2)CC1`, with 760 s.

On to `O=C(O)CCC1CCN(S(=O)(=O)c2ccccc2)CC1`, for which the RP-LC retention time is 739 s.

As for `COc1cc(OC)c(NC(=O)Cn2c(=O)n(-c3ccccc3)c(=O)c3c2cc(C)n3C)cc1Cl`, the RP-LC retention time turned out to be 861 s. Then `CCOC(=O)C1CCCN(C(=O)CCCSc2ccc(NC(=O)C3CC3)nn2)C1` (centres undefined), with 726 s.

Take `O=C(NCc1ccco1)C1CCN(c2cc(N3CCCCC3)ncn2)CC1`: the RP-LC retention time came out at 632 s. Compound `CCOc1ccc(NC(=O)c2cc(C(C)C)n(C3CCS(=O)(=O)C3)n2)cc1` (centres undefined) came in with an RP-LC retention time of 877 s.

With `Cn1c(=O)c(N2CCC(NC(=O)NCc3ccccc3)CC2)nc2ccccc21`, the RP-LC retention time came to 799 s.

Turning to `O=C(Cc1c[nH]c2ccccc12)N1CCC(c2nc(C3CC3)no2)C1` (centres undefined), the RP-LC retention time was 764 s.

For `CN1C(=O)Cc2cc(C(=O)NCc3ccccc3Cl)ccc21`, the RP-LC retention time was determined as 738 s. In turn, `Cc1oc2ccn(Cc3cccc(F)c3)c(=O)c2c1C(=O)N(C)Cc1ccccc1` returned an RP-LC retention time of 898 s.

Take `CCc1nnc2nc(N3CCN(C(=O)c4ccc(Br)cc4)CC3)cc(C)n12`: the RP-LC retention time came to 638 s. To `CCOc1ccc(CCNC(=O)c2c(C)oc3nc(C)nc(N4CCCC4)c23)cc1` belongs 697 s; to `O=C(C1=CN(c2ccc3c(c2)OCO3)c2cc(Cl)ccc2S1(=O)=O)N1CCCC1`, 847 s. `O=C(c1ccncc1)N1CCC2(CC1)N=C(c1ccc(Cl)cc1)NO2` came in with an RP-LC retention time of 625 s. For the compound `O=C(COc1ccc(Cl)cc1)Nc1nc(-c2ccc(Cl)cc2)cs1`, the RP-LC retention time is 1190 s. With `O=C(Nc1cccc(F)c1)C1CCCN(S(=O)(=O)c2c[nH]c(C(=O)N3CCCCCC3)c2)C1` (centres undefined), the RP-LC retention time was 919 s. `CN1c2ccccc2Oc2nnc(N3CCN(c4ccccn4)CC3)cc21` showed an RP-LC retention time of 550 s. Compound `O=C(NCc1ccc(F)cc1)NC1CCCN(c2cc(-c3ccncc3)[nH]n2)C1` (centres undefined) yielded an RP-LC retention time of 610 s. Regarding `CCc1ccc(NC(=O)Cn2nc3n(c2=O)CCCC3)cc1`, the RP-LC retention time amounted to 669 s. Regarding `COc1ccc(S(=O)Cc2ccc(C(=O)NCCCN3CCCCC3)o2)cc1` (centres undefined), the RP-LC retention time was determined as 587 s. Take `COc1cc(OC)c(NC(=O)C2CCCN(C(=O)c3cc(-c4ccncc4)n[nH]3)C2)cc1Cl` (centres undefined): the RP-LC retention time was found to be 633 s. Compound `COc1c(C(=O)NCCN2CCC(C)CC2)sc2ccc(Cl)cc12` returned an RP-LC retention time of 710 s. In the case of `Cc1ccn2cc(C(=O)NCCCN3CCCC3=O)nc2c1`, the RP-LC retention time amounted to 535 s. `O=C(c1ccccc1Br)N1CCN(c2cc(-c3ccc(F)cc3)[nH]n2)CC1` showed an RP-LC retention time of 824 s. Turning to `COc1ccccc1N1CCN(C(=O)c2sc3cccc(F)c3c2OC)CC1`, the RP-LC retention time worked out at 1050 s. Turning to `O=C(Nc1ccc2c(c1)OCCO2)N1C[C@@H]2CN(S(=O)(=O)c3ccccc3)C[C@H](C1)O2`, the RP-LC retention time was found to be 728 s. `COc1ccc(OC)c(NC(=O)c2cc(C(C)(C)C)n3nccc3n2)c1`: the RP-LC retention time came out at 768 s. The compound `O=C(c1ccc2c(c1)OCO2)N1CCN(c2cc(-c3cccs3)[nH]n2)CC1` gave an RP-LC retention time of 732 s. `O=C(NC1CCCCC1)C1CCN(C(=O)c2ncn3c2COC(c2ccc(Cl)cc2)C3)CC1` (centres undefined) showed an RP-LC retention time of 844 s. `Cn1cccc1C(=O)N1CC[C@@H]2CN(S(C)(=O)=O)[C@@H]2C1` gave an RP-LC retention time of 624 s.

Consider `Cc1ccc(-c2nc(CN3CCCC3=O)no2)cc1C`, for which the RP-LC retention time came to 841 s. Then `O=C(c1ccc(Cl)cc1)N1CCc2sc(C(=O)N3CCCC3)cc2C1`, with 792 s; and `CCOc1ccccc1-c1nc(Cn2cnc3onc(C)c3c2=O)c(C)o1`, with 928 s; and `Cc1nn(CC(=O)NCCc2c[nH]c3ccccc23)c(=O)c2noc(C)c12`, with 708 s. Turning to `O=C(Cn1nc(C2CC2)cc1C(=O)N1CCCC1)N1CCN(c2ccc(Cl)cc2)CC1`, the RP-LC retention time amounted to 845 s. `CCOc1cccc(-c2noc(-c3nn(-c4ccccc4)ccc3=O)n2)c1` showed an RP-LC retention time of 942 s. The compound `O=S(=O)(Nc1ccc(F)cc1)c1ccccc1-c1nc(-c2ccccc2)no1` had an RP-LC retention time of 1140 s. In the case of `CCc1ccc2oc(C(=O)NCC(c3ccccc3OC)N(C)C)cc(=O)c2c1` (centres undefined), the RP-LC retention time is 659 s. In the case of `Cc1ccc2c(c1)N(Cc1ccccc1F)N=C(C(=O)N1CCCCC1)S2(=O)=O`, the RP-LC retention time turned out to be 1000 s. Take `Cc1ccccc1NC(=O)C1CCN(S(C)(=O)=O)c2ccccc2O1` (centres undefined): the RP-LC retention time turned out to be 867 s. For `Cc1ccc(-c2csc(Nc3ccccc3C)n2)cc1`, the RP-LC retention time turned out to be 1240 s.

Turning to `COc1ccc(-c2cn3ccn(-c4ccc(Br)cc4)c(=O)c3n2)cc1OC`, the RP-LC retention time came out at 795 s. Compound `O=C(c1csc(N2CCN(c3ccccc3)CC2)n1)N1CCN(c2ccccn2)CC1` showed an RP-LC retention time of 685 s.

`Cc1cc(C)cc(S(=O)(=O)N2CCc3c(c(-c4nnc(-c5ccc(F)cc5)o4)nn3C)C2)c1` gave an RP-LC retention time of 812 s. On to `COCCNC(=O)c1coc(NC(=O)c2cnccn2)n1`, for which the RP-LC retention time was found to be 548 s. Consider `Cc1cccc(-c2noc(C3CC(=O)N(c4ccc5c(c4)OCCO5)C3)n2)c1` (centres undefined), for which the RP-LC retention time was found to be 980 s.

In turn, `CC(C)(C)c1ccc(C(=O)N2CCc3nc[nH]c3C2)cc1` registered an RP-LC retention time of 634 s. `CCCNC(=O)CCc1nc2ccccc2n(CC(=O)Nc2ccc(C(=O)OCC)cc2)c1=O` displayed an RP-LC retention time of 792 s.

`CCOC(=O)c1ccc(NC(=O)Cn2c(C)nc3c(sc4nc(-c5ccccc5)ccc43)c2=O)cc1` showed an RP-LC retention time of 1100 s.

`O=C(NCc1cccnc1)C1CN(C(=O)c2cccs2)CC12CCCCC2` (centres undefined) showed an RP-LC retention time of 619 s. Compound `Cc1cccc(S(=O)(=O)N2CCCN(c3ccc(=O)n(-c4ccc(F)cc4)n3)CC2)c1` displayed an RP-LC retention time of 865 s. To `Cc1ccc(S(=O)(=O)N2CCC(C(=O)NCc3csc(-c4ccccc4)n3)CC2)c(C)c1` belongs 996 s; to `CCn1nc(C)c(CNC(=O)Nc2cccc(C(=O)OC)c2)c1C`, 663 s. Regarding `O=C(OCC12CC3CC(CC(C3)C1)C2)c1ccc(NCc2cc(O)ccc2O)cc1`, the RP-LC retention time was found to be 1080 s. Regarding `CCc1cccc(NC(=O)c2cc3sccc3n2Cc2ccc(F)cc2)c1`, the RP-LC retention time was 1260 s. Regarding `CN(C(=O)CCCOc1ccc2[nH]c(=O)ccc2c1)C1CCCCC1`, the RP-LC retention time amounted to 840 s. Regarding `COc1ccc(-c2nc(C)cc(C)c2CNS(=O)(=O)c2cccc(C#N)c2)cc1`, the RP-LC retention time is 640 s. For the compound `Cc1ccc(CNC(=O)C(C)n2nc(C)c3nn(-c4ccccc4)c(-n4cccc4)c3c2=O)o1` (centres undefined), the RP-LC retention time came out at 987 s. Then `COC(=O)c1ncn2c1C(=O)N(Cc1ccc(C)cc1)C(C)(C(=O)NC1CCCC1)C2` (centres undefined), with 766 s; and `O=C(Cn1ccc2ccccc21)NCc1ccc(OC(F)(F)F)cc1`, with 971 s; and `CCN1CCN(C(=O)C2CCN(S(=O)(=O)c3cc(C(=O)N4CCCC4)n(C)c3)CC2)CC1`, with 567 s. In turn, `CCn1cc(-c2nc(CC(=O)NCc3ccccc3)cs2)c2cccnc21` yielded an RP-LC retention time of 840 s. In the case of `CC1=C(c2cccc(Cl)c2)S(=O)(=O)N=C1N1CCCN(C(=O)c2ccncc2)CC1`, the RP-LC retention time was found to be 677 s. To `Cc1nc(-c2ccncc2)nc2c1CCC(=O)N2CCC1=CCCCC1` belongs 912 s; to `Nc1nc(N)c2nc(-c3cccc(O)c3)c(-c3cccc(O)c3)nc2n1`, 630 s; to `Cc1cc(N(C)C)n2nc(-c3ccc(C(C)(C)C)cc3)nc2n1`, 927 s. For the compound `Cc1ccc(-c2nc(NC(=O)c3cc4ccccc4o3)sc2C)cc1`, the RP-LC retention time stood at 1220 s. `O=C1C2N=NN(Cc3nc(-c4ccc(Br)cc4)no3)C2C(=O)N1c1ccccc1` (centres undefined) had an RP-LC retention time of 1030 s. `CC(C)NC(=O)c1ccc(OCC2CCCN(C(=O)Cc3ccc(F)cc3)C2)cc1` (centres undefined) registered an RP-LC retention time of 979 s.
